Laboratory results taken from ChEMBL document CHEMBL4840303, “Design, synthesis, biological evaluation and pharmacophore model analysis of novel tetrahydropyrrolo[3,4-c]pyrazol derivatives as potential TRKs inhibitors” (Eur J Med Chem, 2021).

How the values were obtained:
[1] = molecular target: High affinity nerve growth factor receptor (Homo sapiens, UniProt P04629); assay: Inhibition of N-terminal GST-tagged human TRKA (436 to 790 residues) expressed in baculovirus infected Sf21 cells using TK as substrate in presence of ATP measured after 30 mins by HTRF assay
Sequence of High affinity nerve growth factor receptor (P04629 whole entry, the tested form may be a part): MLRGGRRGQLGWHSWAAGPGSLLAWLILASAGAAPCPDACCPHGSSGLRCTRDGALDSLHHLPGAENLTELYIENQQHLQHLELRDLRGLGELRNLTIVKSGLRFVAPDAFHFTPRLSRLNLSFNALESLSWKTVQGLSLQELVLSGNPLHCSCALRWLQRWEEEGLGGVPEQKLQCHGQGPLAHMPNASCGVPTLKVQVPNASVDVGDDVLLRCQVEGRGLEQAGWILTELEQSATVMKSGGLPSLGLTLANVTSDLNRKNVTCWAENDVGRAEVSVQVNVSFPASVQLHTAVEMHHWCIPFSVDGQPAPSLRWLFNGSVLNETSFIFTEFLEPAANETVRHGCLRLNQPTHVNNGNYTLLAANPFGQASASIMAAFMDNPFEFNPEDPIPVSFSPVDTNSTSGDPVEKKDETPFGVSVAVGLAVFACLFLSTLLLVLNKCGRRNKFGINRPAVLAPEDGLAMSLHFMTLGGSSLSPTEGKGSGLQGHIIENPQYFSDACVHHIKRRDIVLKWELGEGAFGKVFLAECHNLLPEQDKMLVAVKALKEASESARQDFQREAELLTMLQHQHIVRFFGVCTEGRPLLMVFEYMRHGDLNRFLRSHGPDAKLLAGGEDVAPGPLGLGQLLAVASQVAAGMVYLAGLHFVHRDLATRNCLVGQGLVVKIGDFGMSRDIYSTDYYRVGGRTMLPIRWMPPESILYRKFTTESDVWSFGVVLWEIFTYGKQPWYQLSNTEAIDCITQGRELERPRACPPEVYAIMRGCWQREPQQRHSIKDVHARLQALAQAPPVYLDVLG

KM12 = assay: cells; details: Homo sapiens, KM12, 72 h
Description: Antiproliferative activity against human KM12 cells assessed as inhibition of cell growth measured after 72 hrs by CCK-8 assay

[2] = molecular target: T1, BDNF/NT-3 growth factors receptor (Homo sapiens, UniProt Q16620); assay: Inhibition of N-terminal GST-tagged human TRKB (456 to 822 residues) expressed in baculovirus infected Sf21 cells using TK as substrate in presence of ATP measured after 40 mins by HTRF assay
T1 sequence (Q16620 whole entry, the tested form may be a part): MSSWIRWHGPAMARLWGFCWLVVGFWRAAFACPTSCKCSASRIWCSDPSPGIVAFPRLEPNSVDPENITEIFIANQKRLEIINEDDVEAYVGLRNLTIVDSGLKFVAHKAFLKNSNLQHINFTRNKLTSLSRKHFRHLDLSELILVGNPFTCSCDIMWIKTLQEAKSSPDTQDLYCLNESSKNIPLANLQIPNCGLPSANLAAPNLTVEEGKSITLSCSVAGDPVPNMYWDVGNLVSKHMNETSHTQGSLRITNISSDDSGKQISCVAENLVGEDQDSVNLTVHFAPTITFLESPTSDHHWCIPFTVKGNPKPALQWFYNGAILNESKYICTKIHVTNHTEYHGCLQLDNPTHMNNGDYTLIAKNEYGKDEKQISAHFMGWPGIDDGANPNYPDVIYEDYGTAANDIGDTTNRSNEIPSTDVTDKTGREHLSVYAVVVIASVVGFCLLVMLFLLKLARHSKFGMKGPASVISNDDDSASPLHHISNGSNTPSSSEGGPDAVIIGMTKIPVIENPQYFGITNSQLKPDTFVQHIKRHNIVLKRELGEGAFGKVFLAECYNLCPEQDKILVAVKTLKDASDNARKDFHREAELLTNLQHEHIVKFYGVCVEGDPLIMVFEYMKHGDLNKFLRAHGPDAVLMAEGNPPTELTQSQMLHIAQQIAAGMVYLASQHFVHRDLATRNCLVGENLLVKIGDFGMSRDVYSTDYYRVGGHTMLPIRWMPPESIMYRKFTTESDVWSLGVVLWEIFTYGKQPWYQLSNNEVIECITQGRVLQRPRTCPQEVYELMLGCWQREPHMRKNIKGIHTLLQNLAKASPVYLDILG

A549 = assay: cells; details: Homo sapiens, A549, 72 h
Description: Antiproliferative activity against human A549 cells assessed as inhibition of cell growth measured after 72 hrs by CCK-8 assay

THLE-2 = assay: cells; details: Homo sapiens, THLE-2, 72 h
Description: Antiproliferative activity against human THLE-2 cells assessed as inhibition of cell growth measured after 72 hrs by CCK-8 assay

[3] = molecular target: T1, BDNF/NT-3 growth factors receptor; assay: Inhibition of BDNF-activated full length TRKB (unknown origin) by Cell-based beta-galactosidase PathHunter assay
[4] = molecular target: NT-3 growth factor receptor (Homo sapiens, UniProt Q16288); assay: Inhibition of NT3-activated full length TRKC (unknown origin) by Cell-based beta-galactosidase PathHunter assay
Sequence of NT-3 growth factor receptor (Q16288 whole entry): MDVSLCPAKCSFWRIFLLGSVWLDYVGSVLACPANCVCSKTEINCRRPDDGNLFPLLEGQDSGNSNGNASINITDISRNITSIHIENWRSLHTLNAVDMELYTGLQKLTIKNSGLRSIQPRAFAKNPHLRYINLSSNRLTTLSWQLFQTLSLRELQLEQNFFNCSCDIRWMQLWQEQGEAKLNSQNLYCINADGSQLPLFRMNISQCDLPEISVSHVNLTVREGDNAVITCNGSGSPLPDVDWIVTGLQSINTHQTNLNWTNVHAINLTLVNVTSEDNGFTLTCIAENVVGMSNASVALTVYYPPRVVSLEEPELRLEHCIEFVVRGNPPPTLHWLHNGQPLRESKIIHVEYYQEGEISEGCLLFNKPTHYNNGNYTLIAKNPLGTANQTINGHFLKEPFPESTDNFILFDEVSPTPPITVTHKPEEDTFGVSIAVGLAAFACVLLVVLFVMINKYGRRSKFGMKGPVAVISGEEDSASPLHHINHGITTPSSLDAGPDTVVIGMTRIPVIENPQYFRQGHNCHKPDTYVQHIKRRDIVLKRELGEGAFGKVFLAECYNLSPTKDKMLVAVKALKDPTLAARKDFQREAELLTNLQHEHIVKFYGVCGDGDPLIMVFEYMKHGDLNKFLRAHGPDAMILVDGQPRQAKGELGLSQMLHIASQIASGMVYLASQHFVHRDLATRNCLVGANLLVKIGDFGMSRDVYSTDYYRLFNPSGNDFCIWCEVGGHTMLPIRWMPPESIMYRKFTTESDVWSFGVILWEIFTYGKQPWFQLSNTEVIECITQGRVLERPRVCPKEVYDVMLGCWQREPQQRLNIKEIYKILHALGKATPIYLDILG

Row | SMILES | IC50 [1] [nM] | further results
1 | CC1(C)c2[nH]nc(NC(=O)c3ccccc3)c2CN1Cc1cc(F)cc(C(F)(F)F)c1 | 1000 | –
2 | CN1CCN(c2cccc(C(=O)Nc3n[nH]c4c3CN(Cc3cc(F)cc(F)c3)C4(C)C)c2)CC1 | 150 | IC50 (KM12): > 1000 nM; IC50 [2]: 190 nM
3 | Cc1ccc(F)c(CN2Cc3c(NC(=O)c4ccccc4)n[nH]c3C2(C)C)c1 | 880 | –
4 | CC1(C)c2[nH]nc(NC(=O)c3ccccc3)c2CN1Cc1cc(F)cc(F)c1 | 190 | –
5 | CC1(C)c2[nH]nc(NC(=O)c3ccccc3)c2CN1Cc1cccc(I)c1 | 1360 | –
6 | CC1(C)c2[nH]nc(NC(=O)c3ccc4ccccc4c3)c2CN1Cc1cc(F)cc(F)c1 | 440 | –
7 | CN1CCN(c2ccc(C(=O)Nc3n[nH]c4c3CN(Cc3cccc(F)c3F)C4(C)C)cc2)CC1 | 17 | IC50 (A549): 64200 nM; IC50 (THLE-2): > 100000 nM; IC50 (KM12): 216 nM; IC50 [2]: 23 nM
8 | CC1(C)c2[nH]nc(NC(=O)c3ccccc3)c2CN1Cc1ccc(F)cc1F | 2320 | –
9 | CN(C)c1ccc(C(=O)Nc2n[nH]c3c2CN(Cc2cc(F)cc(F)c2)C3(C)C)cc1 | 96 | –
10 | CC1(C)c2[nH]nc(NC(=O)c3ccc(Br)cc3)c2CN1Cc1cc(F)cc(F)c1 | 710 | –
11 | CC1(C)c2[nH]nc(NC(=O)c3ccc(N4CCOCC4)cc3)c2CN1Cc1cccc(F)c1F | 29 | IC50 (A549): 88500 nM; IC50 (THLE-2): 49500 nM; IC50 (KM12): 146 nM; IC50 [2]: 35 nM
12 | CC1(C)c2[nH]nc(NC(=O)c3ccccc3)c2CN1Cc1ccccc1F | 450 | –
13 | CC1(C)c2[nH]nc(NC(=O)c3ccccc3)c2CN1Cc1cccc(Cl)c1 | 670 | –
14 | CC1(C)c2[nH]nc(NC(=O)c3ccccc3)c2CN1Cc1cccc(F)c1 | 470 | –
15 | CC1(C)c2[nH]nc(NC(=O)c3ccccc3)c2CN1Cc1ccc(F)c(F)c1 | 680 | –
16 | CN(C)c1ccc(C(=O)Nc2n[nH]c3c2CN(Cc2cccc(F)c2F)C3(C)C)cc1 | 69 | –
17 | CC1(C)c2[nH]nc(NC(=O)c3ccc(N4CC[N+](C)(Cc5cc(F)cc(F)c5)CC4)cc3)c2CN1Cc1cc(F)cc(F)c1 | 95 | –
18 | CC1(C)c2[nH]nc(NC(=O)c3cccc(N4CCOCC4)c3)c2CN1Cc1cc(F)cc(F)c1 | 120 | IC50 (KM12): > 1000 nM; IC50 [2]: 170 nM
19 | CC1(C)c2[nH]nc(NC(=O)c3ccccc3)c2CN1Cc1cccc(F)c1F | 200 | –
20 | CC1(C)c2[nH]nc(NC(=O)c3ccc(F)cc3)c2CN1Cc1cccc(F)c1F | 210 | –
21 | CN1CCN(c2cccc(C(=O)Nc3n[nH]c4c3CN(Cc3cccc(F)c3F)C4(C)C)c2)CC1 | 210 | –

Row | SMILES | IC50 [1] [nM] | further results
22 | CC1(C)c2[nH]nc(NC(=O)c3ccccc3)c2CN1Cc1ccc(F)cc1 | 1180 | –
23 | Cc1cccc(CN2Cc3c(NC(=O)c4ccccc4)n[nH]c3C2(C)C)c1 | 1100 | –
24 | Cc1ccc(CN2Cc3c(NC(=O)c4ccccc4)n[nH]c3C2(C)C)cc1F | 940 | –
25 | COc1cccc(CN2Cc3c(NC(=O)c4ccccc4)n[nH]c3C2(C)C)c1 | 1120 | –
26 | CC1(C)c2[nH]nc(NC(=O)c3ccc4ncccc4c3)c2CN1Cc1cc(F)cc(F)c1 | 180 | –
27 | CC1(C)c2[nH]nc(NC(=O)c3ccc4ccccc4c3)c2CN1Cc1cccc(F)c1F | 460 | –
28 | CC1(C)c2[nH]nc(NC(=O)c3ccccc3)c2CN1Cc1cccc(C#N)c1 | 980 | –
29 | CC1(C)c2[nH]nc(NC(=O)c3ccccc3)c2CN1Cc1c(F)cccc1F | 520 | –
30 | CC1(C)c2[nH]nc(NC(=O)c3ccccc3)c2CN1Cc1cc(F)c(F)c(F)c1 | 6960 | –
31 | CC1(C)c2[nH]nc(NC(=O)c3ccccc3)c2CN1Cc1ccccc1 | 1240 | –
32 | Cc1ncc(NC(=O)NC2c3ccccc3-c3ccccc32)c(-c2ccccc2)n1 | – | IC50 [3]: > 8100 nM; IC50 [4]: 2500 nM
33 | CC1(C)c2[nH]nc(NC(=O)c3ccccc3)c2CN1Cc1cc(F)ccc1F | 480 | –
34 | CC1(C)c2[nH]nc(NC(=O)c3ccc(N4CCOCC4)cc3)c2CN1Cc1cc(F)cc(F)c1 | 14 | IC50 (A549): > 100000 nM; IC50 (THLE-2): > 100000 nM; IC50 (KM12): 211 nM; IC50 [2]: 27 nM
35 | CC1(C)c2[nH]nc(NC(=O)c3ccc(F)cc3)c2CN1Cc1cc(F)cc(F)c1 | 350 | –
36 | CN(C)c1cccc(C(=O)Nc2n[nH]c3c2CN(Cc2cccc(F)c2F)C3(C)C)c1 | 420 | –
37 | CC1(C)c2[nH]nc(NC(=O)c3cccc(N4CCOCC4)c3)c2CN1Cc1cccc(F)c1F | 270 | –
38 | CC1(C)c2[nH]nc(NC(=O)c3ccccc3)c2CN1Cc1cccc([N+](=O)[O-])c1 | 600 | –
39 | CC1(C)c2[nH]nc(NC(=O)c3ccccc3)c2CN1Cc1cc(C(F)(F)F)cc(C(F)(F)F)c1 | 16400 | –
40 | CC1(C)c2[nH]nc(NC(=O)c3ccc(Br)cc3)c2CN1Cc1cccc(F)c1F | 950 | –
41 | CN(C)c1cccc(C(=O)Nc2n[nH]c3c2CN(Cc2cc(F)cc(F)c2)C3(C)C)c1 | 270 | –
42 | CC1(C)c2[nH]nc(NC(=O)c3ccccc3)c2CN1Cc1cccc(Br)c1 | 940 | –
